In ChEMBL document CHEMBL3392922, “MMV box screening in the Dd2 P. falciparum strain”:

Test system: Plasmodium falciparum
Test: MMV: IC50 determined against P. falciparum Dd2-luc strain using a Malaria Sybr Green I Fluorescence assay. Starting conditions were 1% trophozoite synchronised parasites at 2% haematocrit. Fluorescence detection completed after 48hr incubation at 37 degrees C under 1% O2, 3% CO2 and balance N2.
Format: functional, organism-based
Conditions: Dd2, 48 h

CN1CCN(c2ccc(Nc3c4ccccc4nc4ccccc34)cc2)CC1 and CCOc1ccc(Nc2c3ccccc3nc3ccccc23)cc1 are within 1.5-fold of each other in IC50: 1600 nM for the first, 1670 nM for the second.

First: COc1ccc(Nc2nc(N/N=C/c3ccc(O)cc3)nc(Nc3ccc([N+](=O)[O-])cc3)n2)cc1
Second: COc1ccc(Nc2nc(NCc3ccccc3)c3ccccc3n2)cc1
The IC50 of the first is 17-fold higher: 1530 nM for the first, 90.6 nM for the second. The second is the more potent here.

Compared with CN(C)CCCNc1c2ccccc2nc2ccccc12, CN(C)CCNc1cc(-c2ccccc2)nc2ccccc12 is 15-fold higher in IC50: 237 nM for the first, 3650 nM for the second. The first is the more potent here.

Going from COc1ccc(C2c3ccc4ccccc4c3Oc3ncn(CCCN(C)C)c(=N)c32)cc1 (stereo not given) to COc1ccc(C2c3ccc4ccccc4c3Oc3ncn(CCCn4ccnc4)c(=N)c32)cc1OC (stereo not given), the IC50 rises from 443 nM to 1230 nM (2.8-fold).

c1ccc(/C2=N/c3ccccc3/N=C(/c3ccccc3)c3ccccc32)cc1 and COc1ccc(C2Sc3ccccc3N=C3C2=C(O)c2ccccc23)cc1 (stereo not given) are within 1.5-fold of each other in IC50: 638 nM for the first, 723 nM for the second.

First: CCOC(=O)c1cnc2ccc(CC)cc2c1O
Second: CCOC(=O)c1cnc2ccc(Cl)cc2c1NCCCN(C)C
The IC50 of the first is 1.8-fold lower: 647 nM for the first, 1180 nM for the second.

Going from CCN(CC)CCNc1ccnc2cc(Cl)ccc12 to CCN(CC)CCNc1ccnc2cc3ccccc3cc12, the IC50 rises from 44 nM to 465 nM (11-fold).

Compared with O=C(Nc1ccc(Br)cc1)Nc1cccc(Cl)c1, Cc1ccc(NC(=O)Nc2cccc(Cl)c2)cc1F is 3-fold lower in IC50: 3590 nM for the first, 1210 nM for the second.

Cc1cc(NCCN2CCCCC2)c2ccc3ccccc3c2n1 and CC(O)(c1ccc(Cl)cc1)C(CN1CCCCC1)c1ccccc1 (stereo not given) are within 1.5-fold of each other in IC50: 309 nM for the first, 314 nM for the second.

First: O=C(NCc1ccco1)C1CCN(S(=O)(=O)c2ccc(Cl)cc2)CC1
Second: CCCCC(O)(c1ccc(Cl)cc1)C(CN1CCOCC1)c1ccc(Cl)cc1 (stereo not given)
The IC50 of the first is 4.1-fold lower: 878 nM for the first, 3570 nM for the second.

Compared with CCOc1ccc(N2C(N)=NC(N)=NC2(C)C)cc1, CN(C)c1ccc(N2C(N)=NC(N)=NC2(C)C)cc1 is 51-fold lower in IC50: 8130 nM for the first, 158 nM for the second. The second is the more potent here.

First: CCc1c(C)c(=N)c2ccccc2n1C
Second: C=CCc1c(C)nc2ccccc2c1O
The IC50 of the first is 1.9-fold higher: 2770 nM for the first, 1480 nM for the second. The second is the more potent here.

Going from COc1cc2cc(C(=O)Nc3ccccc3)c(N)nc2cc1OC to CCN(CC)c1cc(C)c2cc(NC(=O)c3cccc(OC)c3)ccc2n1, the IC50 rises from 884 nM to 2770 nM (3.1-fold). The first is the more potent here.

First: Oc1ccc(-c2nc(-c3ccc4oc5ccc(-c6[nH]c(-c7ccc(O)cc7)nc6-c6ccccc6)cc5c4c3)c(-c3ccccc3)[nH]2)cc1
Second: c1ccc2c(NCCc3c[nH]c4ccccc34)c3ccccc3nc2c1
The IC50 of the first is 3.4-fold higher: 683 nM for the first, 200 nM for the second.

CCOc1ccc(CN2CCN(CC(O)COc3ccc(OCC(O)CN4CCN(Cc5ccc(OCC)cc5)CC4)cc3)CC2)cc1 (stereo not given) and Oc1ccc(Br)cc1CN1CCN(Cc2cccc(F)c2)CC1 are within 1.5-fold of each other in IC50: 948 nM for the first, 1290 nM for the second.

Compared with CCN(CC)CCn1c(=N)n(CC(O)c2ccc(Cl)c(Cl)c2)c2ccccc21 (stereo not given), CCCCCn1c(=N)n(CC(O)COc2cccc(C)c2)c2ccccc21 (stereo not given) is 5.8-fold higher in IC50: 404 nM for the first, 2350 nM for the second.

Going from COc1cccc(C=Cc2nc(=O)c3ccccc3o2)c1OC to COc1ccc2c(c1OC)C(=O)N1c3ccccc3N=C(c3ccc(C)cc3)CC21 (stereo not given), the IC50 rises from 426 nM to 1690 nM (4-fold).

Going from Cc1ccnc(NC(c2cccc(OCc3ccccc3)c2)c2ccc3cccnc3c2O)c1 (stereo not given) to COc1ccc(Nc2cc(C)nc(NCc3ccccc3)n2)cc1, the IC50 falls from 963 nM to 311 nM (3.1-fold). The second is the more potent here.

First: COc1ccc(CCn2c(=N)c(C(=O)NCc3cccnc3)cc3c(=O)n4cccc(C)c4nc32)cc1
Second: COc1ccc(-c2cc(=O)oc3c4c(ccc23)OCN(Cc2ccc(F)cc2)C4)cc1
The IC50 of the first is 3.1-fold lower: 272 nM for the first, 851 nM for the second.

Going from CCCN(CCC)CC(O)COc1ccccc1C(=O)Nc1ccccc1 (stereo not given) to CCCCCCn1c(=N)n(CC(O)COc2cccc(C)c2)c2ccccc21 (stereo not given), the IC50 rises from 209 nM to 1800 nM (8.6-fold).

CCOc1ccc2nc(C)cc(Nc3ccc(N(C)C)cc3)c2c1 and CCOc1ccc2nc(C)cc(Nc3ccc(Br)cc3)c2c1 are within 1.5-fold of each other in IC50: 998 nM for the first, 791 nM for the second.

Going from Cc1cc(Nc2cccc(F)c2)nc(NCc2ccccc2)n1 to c1ccc(CNc2nc(Nc3ccccc3)nc3ccccc23)cc1, the IC50 rises from 544 nM to 897 nM (1.6-fold).

First: Cc1ccc(-c2cc3nc4c(c(O)n3n2)CCCC4)cc1
Second: CC1CCCCN1CCCNC(=O)c1ccc2c(c1)sc1nc(-c3ccc(F)cc3)cn12 (stereo not given)
The IC50 of the first is 3.2-fold higher: 1780 nM for the first, 559 nM for the second. The second is the more potent here.

Going from OCCNc1nc(Nc2ccc(Cl)c(Cl)c2)nc2ccccc12 to Cc1ccc(Nc2nc(NCCO)c3ccccc3n2)cc1C, the IC50 rises from 419 nM to 987 nM (2.4-fold). The first is the more potent here.

Compared with CCOC(=O)c1cnc2ccc(OC)cc2c1Nc1ccc(N2CCN(C)CC2)cc1, CN1CCN(c2nc(Nc3ccc(O)cc3)nc3ccccc23)CC1 is 1.8-fold higher in IC50: 769 nM for the first, 1410 nM for the second. The first is the more potent here.

CC(C)CCNCC(O)Cn1c2ccccc2c2ccccc21 (stereo not given) and OC(CNCc1ccccc1)Cn1c2ccccc2c2ccccc21 (stereo not given) are within 1.5-fold of each other in IC50: 907 nM for the first, 1100 nM for the second.

Going from CCOc1cc2c(cc1OCC)C(c1cc(Cl)ccc1O)NCC2 (stereo not given) to CCOc1cc2c(cc1OCC)C(c1cc(C)c(O)c(C)c1)NCC2 (stereo not given), the IC50 falls from 1700 nM to 654 nM (2.6-fold). The second is the more potent here.

Going from Cc1cc(C)c2c(c1)OCN(Cc1ccccc1Cl)C2 to CC(C)(C)c1ccc2c(c1)CN(Cc1ccc(Cl)cc1)CO2, the IC50 falls from 297 nM to 196 nM (1.5-fold).

First: COc1cc(OC)c(N(C)C(=O)c2cc3c(s2)-c2ccccc2S(=O)(=O)C3)cc1Cl
Second: CCCN(CCC)CCCNC(=O)c1cc2c(-c3ccc(OC)c(OC)c3)nn(C)c2s1
The IC50 of the first is 3.9-fold lower: 298 nM for the first, 1160 nM for the second. The first is the more potent here.

O=C1c2ccccc2C2=Nc3ccccc3SC(c3cccc(F)c3)C12 (stereo not given) and COc1ccccc1CNC(=O)C1c2ccccc2C(=O)N(CC(C)C)C1c1cccs1 (stereo not given) are within 1.5-fold of each other in IC50: 766 nM for the first, 1140 nM for the second.

Going from Cc1cc(NC(=O)C2c3ccccc3C(=O)N(CC(C)C)C2c2cccs2)no1 (stereo not given) to COc1ccc(NC(=O)C2c3ccccc3C(=O)N(CC(C)C)C2c2cccs2)cc1 (stereo not given), the IC50 rises from 160 nM to 1260 nM (7.9-fold). The first is the more potent here.

O=C1CC(O)(C(F)(F)C(F)(F)F)Oc2ccccc21 (stereo not given) and Cc1ccc2nc(C)cc(Nc3cccc(C(F)(F)F)c3)c2c1 are within 1.5-fold of each other in IC50: 1030 nM for the first, 1390 nM for the second.

Going from CCOc1cccc2sc(N(Cc3cccnc3)C(=O)C3CCCCC3)nc12 to CCCOCc1cc(CN2CCN(c3cccc(Cl)c3)CC2)c(O)c2ncccc12, the IC50 falls from 2700 nM to 961 nM (2.8-fold).

Going from CC(C)c1ccc(CNCC(O)c2ccccc2)cc1 (stereo not given) to CCCCCCC(O)(c1ccc(F)cc1)C(CN1CCOCC1)c1ccccc1 (stereo not given), the IC50 rises from 1080 nM to 3420 nM (3.2-fold).

First: CC1CC(C)CN(C(=O)c2ccc(Cl)cc2Cl)C1 (stereo not given)
Second: CC(C)OCc1cc(CN2CCN(c3cccc(Cl)c3)CC2)c(O)c2ncccc12
The IC50 of the first is 3.3-fold higher: 1880 nM for the first, 573 nM for the second.

Going from CCOc1cc2c(cc1OCC)C(c1cc(Cl)c(O)c(OCC)c1)NCC2 (stereo not given) to CCOC(=O)C1=CN(C)C=C(C(=O)OCC)C1c1cc(Br)c(OCC)c(OC)c1, the IC50 falls from 1610 nM to 458 nM (3.5-fold).

Compared with OC(CNC1CCCC1)Cn1c2ccccc2c2ccccc21 (stereo not given), CCOc1ccccc1CNC(=O)C1c2ccccc2C(=O)N(CC(C)C)C1c1cccs1 (stereo not given) is 2.7-fold higher in IC50: 453 nM for the first, 1220 nM for the second. The first is the more potent here.

Going from CCc1ccc(Nc2cc(C)c3ccc(O)cc3n2)cc1 to CCOC(=O)c1ccc2nc(-c3ccccc3)cc(O)c2c1, the IC50 rises from 316 nM to 720 nM (2.3-fold). The first is the more potent here.

First: COc1ccc(C(O)(CCC(C)C)C(CN2CCOCC2)c2ccc(Cl)cc2)cc1 (stereo not given)
Second: CCOc1ccc2c(c1)CN(Cc1ccc(Cl)cc1)CO2
The IC50 of the first is 5.8-fold higher: 3550 nM for the first, 617 nM for the second.

CSc1ccccc1C(=O)Nc1nc(-c2ccccn2)cs1 and Oc1c(CN2CCN(c3ccccc3F)CC2)cc(Br)c2cccnc12 are within 1.5-fold of each other in IC50: 1800 nM for the first, 1340 nM for the second.

First: CCCCc1ccc(NS(=O)(=O)c2cc3c4c(c2)CCN4C(=O)CC3)cc1
Second: Clc1ccc2[nH]c3c(NCCCN4CCOCC4)ncnc3c2c1
The IC50 of the first is 6-fold higher: 3680 nM for the first, 617 nM for the second.

First: CCCCc1c(C)nc2c(OC)cccc2c1O
Second: CCOc1c(Br)cc(C2C(C(=O)OC)=CN(C)C=C2C(=O)OC)cc1OC
The IC50 of the first is 1.8-fold higher: 1410 nM for the first, 789 nM for the second. The second is the more potent here.

Cc1cc(N2CCN(C3CCCC3)CC2)n2c(nc3ccccc32)c1C#N was tested, and the IC50 was 916 nM.
